Assay results as given in ChEMBL document CHEMBL5729101, “CaMKII inhibitors and uses thereof” (2022).

Test: In Vitro CaMKIIδ Activity Assay: The inhibition of CaMKII activity was evaluated using a coupled assay measuring ADP released following ATP hydrolysis and phosphor-transfer to the peptide substrate AC3 (KKALHRQETVDAL; SEQ ID NO: 1) (1). A full length, C-terminal His/Gln tagged CaMKIIδ construct was used.

| IC50 | SMILES |
| --- | --- |
| < 0.1 µM | NCCNc1cccc(-c2ccnc3[nH]c4ccc(Cl)cc4c23)c1 |
| < 0.1 µM | NCCNc1cccc(-c2ccnc3[nH]c4ccccc4c23)c1 |
| < 0.1 µM | Cc1ccc2[nH]c3nccc(-c4cccc(NCCN)c4)c3c2c1 |
| < 0.1 µM | NCCOc1cccc(-c2ccnc3[nH]c4ccccc4c23)c1 |
| < 0.1 µM | Cc1ccc2c(c1)[nH]c1nccc(-c3cccc(NCCN)c3)c12 |
| in the range around 55 µM | NCc1cccc(-c2ccnc3[nH]c4ccccc4c23)c1 |
| < 0.1 µM | NCCCNc1cccc(-c2ccnc3[nH]c4ccccc4c23)c1 |
| < 0.1 µM | COc1ccc2c(c1)[nH]c1nccc(-c3cccc(NCCN)c3)c12 |

The remaining lines, values behind:

| SMILES | IC50 |
| --- | --- |
| c1ccc2c(c1)[nH]c1nccc(-c3cnn(C4CCNCC4)c3)c12 | in the range around 55 µM |
| c1ccc2c(c1)[nH]c1nccc(-n3cc(C4CCNCC4)nn3)c12 | in the range around 55 µM |
| Clc1cnccc1-c1ccnc2[nH]c3ccccc3c12 | in the range around 55 µM |
| C(=C/c1ccnc2[nH]c3ccccc3c12)/CN1CCNCC1 | in the range around 55 µM |
| c1cc(-c2ccnc3[nH]c4ccccc4c23)cc(-n2ccnc2)c1 | in the range around 55 µM |
| NCCCOc1cccc(-c2ccnc3[nH]c4ccccc4c23)c1 | < 0.1 µM |
| c1cc(-c2ccnc3[nH]c4ccccc4c23)nc(N2CCNCC2)c1 | < 0.1 µM |
| Clc1cncc(-c2ccnc3[nH]c4ccccc4c23)c1 | in the range around 55 µM |
| Cc1nn(C2CCNCC2)cc1-c1ccnc2[nH]c3ccccc3c12 | in the range around 55 µM |
| C(=C\c1ccnc2[nH]c3ccccc3c12)/CN1CCNCC1 | in the range around 55 µM |
| c1ccc2c(c1)[nH]c1nccc(-c3cnc(N4CCNCC4)s3)c12 | in the range around 55 µM |
